According to US5017618A, “Labile derivatives of ketone analogs of 3-substituted-1-alkylamino-2-propanols and their use as beta-adrenergic blockers” (priority 1989, dated 1991):

What was measured:
[1] = system: ocular tissues of rabbits; experiment: In vivo distribution-metabolism in ocular tissues of rabbits; settings: for Tissue concentration: after topical propranolone oxime HCl 6a 1%
Protocol: (§1) Adult male New Zealand albino rabbits weighing 2.5-3.5 kg were used. Standard doses of 100 μl of 1% solution of the drugs in saline solution were administered topically to both eyes of each rabbit. After appropriate time intervals (30, 60 and 120 minutes), the animals were sacrificed. Aqueous humor was obtained by making a single puncture at the limbus using a 25 g×5/8" needle attached to 1 cm^3 syringe. Then the cornea and the iris-ciliary body were isolated. The tissues were pooled and homogenized using a Tekmar SDT tissuemizer in ice cold perchloric acid (0.05M) which contained 0.05% sodium metabisulfite as antioxidant. Samples were then rehomogenized in CH3 OH to prepare 10% homogenates, transferred to micro-filters and centrifuged for 20 minutes at 10000 r/minute to precipitate proteins. Aqueous humor was analyzed as such without any further dilution. Aliquots of 5-20 μl of the 10% tissue homogenate samples were analyzed by HPLC.

[2] = as above; settings: rabbit, topical or ocular, 1 %, Tissue concentration
Protocol: as §1

rabbit iris-ciliary body = experiment: Stereospecificity of enzymatic reduction in iris-ciliary body (chiral derivatization HPLC); format: in vivo; settings: iris-ciliary body of rabbit treated with the oxime
From the text: Finally, it was shown that the enzymatic reduction of the ketone is stereospecific. The extract residue from the iris-ciliary body of rabbit treated with 1-(isopropylamino)-3-(1-naphthyloxy)-2-propranolone oxime was reacted with the chiral reagent, 2,3,4,6-tetra-O-acetyl-β-D-glucoppyranosyl isocyanate, in acetonitrile and analyzed by the HPLC procedure of Sedman et al, J. Chromatogr. 278, 199-203, 1983 (Supelcosil LC-18 reversed-phase column of 7.5 cm×4.6 mm with 3 μm particles, mobile phase: 60% acetonitrile in 0.02M aqueous monobasic ammonium phosphate solution, 1 mL/min flow rate, UV detection at 254 nm).

[3] = In vivo distribution-metabolism in rat's blood
Protocol: A group of seven adult male Sprague-Dawley rats weighing 150-250 g was used. […] After 1, 3, 5, 20, 40 and 60 minutes, one mL of blood was withdrawn from the jugular vein and dropped immediately into a tared tube containing 1 mL of ice-cold acetonitrile. The tubes were vigorously shaken, centrifuged, decanted and analyzed for propranolol 1a and propranolone oxime 5a by HPLC. Quantitation was done by using a calibration curve obtained by addition of known amounts of propranolol oxime HCl 6a to blood obtained from a control rat pretreated with saline solution.
A high pressure liquid chromatography (HPLC) method was developed for the assay of the β-blockers and their ketoxime analogs in biological fluids. […] An ASI reverse phase chrompack C18 column, operated at ambient temperature, was used for all separation. The mobile phase used for separation of propranolol 1a and propranolone oxime 5a consisted of water (90 mL), 1-heptanesulfonic acid (1g), 0.1M acetic acid (10 mL), 0.1M triethanolamine (100 mL) and methanol (799 mL).

[4] = cited from earlier work
iris-ciliary body = settings: topical application to the eye; cited from earlier work

CC(C)NCC(COc1cccc2ccccc12)=NO [propranolone oxime 5a, 1-(Isopropylamino)-3-(1-naphthyloxy)-2-propanone oxime]
Tissue concentration ([1]; aqueous humor, 120 min.): 0.00 ± 0.00 mcg/g tissue
Tissue concentration ([1]; cornea, 120 min.): 0.00 ± 0.00 mcg/g tissue
Tissue concentration ([1]; iris-ciliary body, 60 min.): 0.00 ± 0.00 mcg/g tissue
Tissue concentration ([1]; iris-ciliary body, 120 min.): 0.00 ± 0.00 mcg/g tissue
concentration at 0.5 h ([2]; aqueous humor): 820 ± 90 ng/g
concentration at 1 h ([2]; aqueous humor): 800 ± 60 ng/g
concentration at 0.5 h ([2]; cornea): 23800 ± 4910 ng/g
concentration at 1 h ([2]; cornea): 16400 ± 5800 ng/g
concentration at 0.5 h ([2]; iris-ciliary body): 7790 ± 1100 ng/g
stereospecificity: enantiomer of propranolol formed (rabbit iris-ciliary body): The sole presence of the S-(-)-enantiomer of 1-(isopropylamino)-3-(1-naphthyloxy)-2-propanol (propranolol) was established
metabolite in blood ([3]; after i.v. oxime, disappeared 5 minutes after injection): another more polar compound was detected
half-life ([3]; blood, iv, 6 mg/kg): 7.64 ± 0.55 min
presence of oxime in blood ([3]; one hour after i.v. administration): completely disappeared from the blood

CC(C)(C)NC[C@H](O)COc1nsnc1N1CCOCC1 [timolol]
detection of parent β-adrenergic antagonist in eye compartments ([1]; after ophthalmic 6b, low dose level used): could not be found in any of the eye compartments
side effects secondary to topical ocular administration [4]: a vast number of serious cardiovascular, respiratory, CNS and ocular side effects

CNCC(=O)c1ccc(O)c(O)c1 [adrenalone]
conversion to adrenaline in the eye (iris-ciliary body): not adrenalone itself can be converted via a reduction-hydrolysis sequence to deliver adrenaline
